Tested on: IL-1β release from THP-1 cells
Test: IL-1β Release Assay (Alternate Method), THP-1 cells
Type: cell-based, human
Conditions: Homo sapiens; at 0.3 μM; THP-1 cells; read-out: IL-1β % inhibition
Summary of the method: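 THP-1 cells differentiated 16 h with 100 ng/mL LPS plus 100 ng/mL IFN-γ, reprimed 2 h with 100 ng/mL LPS, pretreated 30 min with compound, then challenged 45 min with 250 uM BzATP (final). Supernatant IL-1β quantified by ELISA; percent inhibition from background-adjusted levels versus untreated cells.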

SMILES | inhibition at 0.3 µM
O=C(CC12CC3CC(CC(C3)C1)C2)Nc1ncnc2c1CCN(Cc1ccc3c(c1)OCCO3)C2 [Compound 46] | > 75%

Same assay, conditions: at 0.3 μM; THP-1 cells

SMILES | IL-1β % inhibition
O=C(CC12CC3CC(CC(C3)C1)C2)Nc1ncnc2c1CCN(S(=O)(=O)Cc1ccccc1)C2 [Compound 153] | ++++ (compound exhibited 75% or greater inhibition at 0.3 μM)
CN1CCOc2cc(S(=O)(=O)N3CCc4c(ncnc4NC(=O)CC45CC6CC(CC(C6)C4)C5)C3)ccc21 [Compound 157] | + (compound exhibited 0-25% inhibition at 0.3 μM)
COc1cc(OC)cc(C(=O)N2CCc3c(ncnc3NC(=O)CC34CC5CC(CC(C5)C3)C4)C2)c1 [Compound 246] | ++ (compound exhibited 25-50% inhibition at 0.3 μM)
O=C(CC12CC3CC(CC(C3)C1)C2)Nc1ncnc2c1CCN(Cc1ccc(-c3ccccn3)cc1)C2 [Compound 65] | + (compound exhibited 0-25% inhibition at 0.3 μM)
O=C(CC12CC3CC(CC(C3)C1)C2)Nc1ncnc2c1CCN(C(=O)c1cccc(F)c1)C2 [Compound 227] | + (compound exhibited 0-25% inhibition at 0.3 μM)
Cc1cc(C(=O)N2CCc3c(ncnc3NC(=O)CC34CC5CC(CC(C5)C3)C4)C2)n(C)n1 [Compound 285] | + (compound exhibited 0-25% inhibition at 0.3 μM)
CC12CC3(C)CC(C)(C1)CC(C(=O)Nc1ncnc4c1CCN(Cc1ccccc1)C4)(C2)C3 [Compound 346] | + (compound exhibited 0-25% inhibition at 0.3 μM)
N#Cc1ccc(C(=O)N2CCc3c(ncnc3NC(=O)CC34CC5CC(CC(C5)C3)C4)C2)cc1 [Compound 257] | + (compound exhibited 0-25% inhibition at 0.3 μM)
COc1ccc(CN2CCc3c(ncnc3NC(=O)CC34CC5CC(CC(C5)C3)C4)C2)cc1Cl [Compound 324] | + (compound exhibited 0-25% inhibition at 0.3 μM)
CC12CC3CC(C)(C1)CC(CC(=O)Nc1ncnc4c1CCN(Cc1ccc5c(c1)OCCO5)C4)(C3)C2 [Compound 373] | ++++ (compound exhibited 75% or greater inhibition at 0.3 μM)
O=C(CC12CC3CC(CC(C3)C1)C2)Nc1ncnc2c1CCN(Cc1ccc(Cl)cc1Cl)C2 [Compound 319] | + (compound exhibited 0-25% inhibition at 0.3 μM)
O=C(CC12CC3CC(CC(C3)C1)C2)Nc1ncnc2c1CCN(C(=O)c1cnn(-c3ccccc3)c1C(F)(F)F)C2 [Compound 286] | +++ (compound exhibited 50-75% inhibition at 0.3 μM)
O=C(CC12CC3CC(CC(C3)C1)C2)Nc1ncnc2c1CCN(S(=O)(=O)c1ccccc1-c1ccccc1)C2 [Compound 194] | ++++ (compound exhibited 75% or greater inhibition at 0.3 μM)
CC(C)(C)c1ccc(C(=O)N2CCc3c(ncnc3NC(=O)CC34CC5CC(CC(C5)C3)C4)C2)cc1 [Compound 301] | ++++ (compound exhibited 75% or greater inhibition at 0.3 μM)
O=C(CC12CC3CC(CC(C3)C1)C2)Nc1ncnc2c1CCN(C(=O)Cc1ccc(Cl)cc1)C2 [Compound 265] | ++ (compound exhibited 25-50% inhibition at 0.3 μM)
O=C(CC12CC3CC(CC(C3)C1)C2)Nc1ncnc2c1CCN(Cc1ccc(C(F)(F)F)cc1)C2 [Compound 72] | + (compound exhibited 0-25% inhibition at 0.3 μM)
O=C(CC12CC3CC(CC(C3)C1)C2)Nc1ncnc2c1CCN(C(=O)c1ccc(C(F)(F)F)cc1)C2 [Compound 243] | +++ (compound exhibited 50-75% inhibition at 0.3 μM)

SMILES | IL-1β % inhibition
O=C(CC12CC3CC(CC(C3)C1)C2)Nc1ncnc2c1CCN(C(=O)c1cccc(Cl)c1Cl)C2 [Compound 282] | ++++ (compound exhibited 75% or greater inhibition at 0.3 μM)
COc1ccc(C(=O)N2CCc3c(ncnc3NC(=O)CC34CC5CC(CC(C5)C3)C4)C2)cc1OC [Compound 312] | + (compound exhibited 0-25% inhibition at 0.3 μM)
COc1ccccc1CN1CCc2c(ncnc2NC(=O)CC23CC4CC(CC(C4)C2)C3)C1 [Compound 29] | + (compound exhibited 0-25% inhibition at 0.3 μM)
Cc1ccc(CN2CCc3c(ncnc3NC(=O)CC34CC5CC(CC(C5)C3)C4)C2)c(C)c1 [Compound 320] | + (compound exhibited 0-25% inhibition at 0.3 μM)
CC12CC3CC(C)(C1)CC(CC(=O)Nc1ncnc4c1CCN(S(=O)(=O)Cc1ccccc1)C4)(C3)C2 [Compound 377] | ++++ (compound exhibited 75% or greater inhibition at 0.3 μM)
CC(C)Oc1ccc(CN2CCc3c(ncnc3NC(=O)CC34CC5CC(CC(C5)C3)C4)C2)cc1 [Compound 113] | + (compound exhibited 0-25% inhibition at 0.3 μM)
O=C(CC12CC3CC(CC(C3)C1)C2)Nc1ncnc2c1CCN(C(=O)Cc1ccccc1)C2 [Compound 225] | ++ (compound exhibited 25-50% inhibition at 0.3 μM)
O=C(CC12CC3CC(CC(C3)C1)C2)Nc1ncnc2c1CCN(S(=O)(=O)c1ccccc1Cl)C2 [Compound 192] | +++ (compound exhibited 50-75% inhibition at 0.3 μM)
Cc1ccc(F)cc1S(=O)(=O)N1CCc2c(ncnc2NC(=O)CC23CC4CC(CC(C4)C2)C3)C1 [Compound 212] | +++ (compound exhibited 50-75% inhibition at 0.3 μM)
O=C(CC12CC3CC(CC(C3)C1)C2)Nc1ncnc2c1CCN(Cc1ccccc1C(F)(F)F)C2 [Compound 120] | + (compound exhibited 0-25% inhibition at 0.3 μM)
O=C(CC12CC3CC(CC(C3)C1)C2)Nc1ncnc2c1CCN(Cc1ccc(Oc3ccccc3)cc1)C2 [Compound 75] | + (compound exhibited 0-25% inhibition at 0.3 μM)
COc1ccc(CN2CCc3c(ncnc3NC(=O)CC34CC5CC(CC(C5)C3)C4)C2)cc1 [Compound 40] | + (compound exhibited 0-25% inhibition at 0.3 μM)
CCN1CCc2c(ncnc2NC(=O)CC23CC4CC(CC(C4)C2)C3)C1 [Compound 8] | + (compound exhibited 0-25% inhibition at 0.3 μM)
O=C(CC12CC3CC(CC(C3)C1)C2)Nc1ncnc2c1CCN(Cc1cc(F)cc(C(F)(F)F)c1)C2 [Compound 108] | + (compound exhibited 0-25% inhibition at 0.3 μM)
CC12CC3CC(C)(C1)CC(CC(=O)Nc1ncnc4c1CCN(S(=O)(=O)c1cccc(Cl)c1)C4)(C3)C2 [Compound 380] | + (compound exhibited 0-25% inhibition at 0.3 μM)
O=C(CC12CC3CC(CC(C3)C1)C2)Nc1ncnc2c1CCN(C(=O)c1cc(F)cc(C(F)(F)F)c1)C2 [Compound 267] | ++ (compound exhibited 25-50% inhibition at 0.3 μM)

Same assay, conditions: at 0.3 μM; THP-1 cells, BzATP-stimulated

SMILES | IL-1β % inhibition
O=C(c1ccc(F)cc1F)N1CCc2c(ncnc2NC(=O)C23CC4CC(CC(C4)C2)C3)C1 [Compound 449] | ++ (compound exhibited 25-50% inhibition at 0.3 μM)
COc1ccc(OC)c(S(=O)(=O)N2CCc3c(ncnc3NC(=O)C34CC5CC(CC(C5)C3)C4)C2)c1 [Compound 549] | ++ (compound exhibited 25-50% inhibition at 0.3 μM)
O=C(Nc1ncnc2c1CCN(S(=O)(=O)c1ccc(F)cc1F)C2)C12CC3CC(CC(C3)C1)C2 [Compound 543] | ++ (compound exhibited 25-50% inhibition at 0.3 μM)
COc1cc(F)c(CN2CCc3c(ncnc3NC(=O)C34CC5CC(CC(C5)C3)C4)C2)c(F)c1 [Compound 624] | + (compound exhibited 0-25% inhibition at 0.3 μM)
O=C(Cc1ccccc1Br)N1CCc2c(ncnc2NC(=O)C23CC4CC(CC(C4)C2)C3)C1 [Compound 470] | + (compound exhibited 0-25% inhibition at 0.3 μM)
Cc1ccc(F)cc1S(=O)(=O)N1CCc2c(ncnc2NC(=O)C23CC4CC(CC(C4)C2)C3)C1 [Compound 546] | + (compound exhibited 0-25% inhibition at 0.3 μM)
Cc1nn(C)c(Cl)c1S(=O)(=O)N1CCc2c(ncnc2NC(=O)C23CC4CC(CC(C4)C2)C3)C1 [Compound 495] | ++ (compound exhibited 25-50% inhibition at 0.3 μM)
COc1ccccc1CN1CCc2c(ncnc2NC(=O)C23CC4CC(CC(C4)C2)C3)C1 [Compound 615] | +++ (compound exhibited 50-75% inhibition at 0.3 μM)
Cc1ccc(CN2CCc3c(ncnc3NC(=O)C34CC5CC(CC(C5)C3)C4)C2)cc1C [Compound 585] | ++ (compound exhibited 25-50% inhibition at 0.3 μM)
Cc1ccc(S(=O)(=O)N2CCc3c(ncnc3NC(=O)C34CC5CC(CC(C5)C3)C4)C2)cc1Cl [Compound 541] | ++++ (compound exhibited 75% or greater inhibition at 0.3 μM)
COc1cccc(C(=O)N2CCc3c(ncnc3NC(=O)C34CC5CC(CC(C5)C3)C4)C2)c1 [Compound 422] | ++ (compound exhibited 25-50% inhibition at 0.3 μM)
O=C(Nc1ncnc2c1CCN(S(=O)(=O)c1ccc(OC(F)(F)F)cc1)C2)C12CC3CC(CC(C3)C1)C2 [Compound 493] | ++ (compound exhibited 25-50% inhibition at 0.3 μM)
O=C(c1ccc(Cl)nc1)N1CCc2c(ncnc2NC(=O)C23CC4CC(CC(C4)C2)C3)C1 [Compound 453] | + (compound exhibited 0-25% inhibition at 0.3 μM)
Cc1ccc(S(=O)(=O)N2CCc3c(ncnc3NC(=O)C34CC5CC(CC(C5)C3)C4)C2)cc1 [Compound 482] | ++ (compound exhibited 25-50% inhibition at 0.3 μM)
O=C(Nc1ncnc2c1CCN(S(=O)(=O)c1ccccc1Cl)C2)C12CC3CC(CC(C3)C1)C2 [Compound 525] | + (compound exhibited 0-25% inhibition at 0.3 μM)
Cc1cc(C(=O)N2CCc3c(ncnc3NC(=O)C34CC5CC(CC(C5)C3)C4)C2)c(C)o1 [Compound 463] | ++ (compound exhibited 25-50% inhibition at 0.3 μM)
O=C(Nc1ncnc2c1CCN(S(=O)(=O)c1cc(Cl)cc(Cl)c1)C2)C12CC3CC(CC(C3)C1)C2 [Compound 542] | + (compound exhibited 0-25% inhibition at 0.3 μM)
Cc1ccc(C(=O)N2CCc3c(ncnc3NC(=O)C34CC5CC(CC(C5)C3)C4)C2)cc1 [Compound 461] | + (compound exhibited 0-25% inhibition at 0.3 μM)
O=C(Nc1ncnc2c1CCN(S(=O)(=O)Cc1cc(Cl)cc(Cl)c1)C2)C12CC3CC(CC(C3)C1)C2 [Compound 519] | +++ (compound exhibited 50-75% inhibition at 0.3 μM)

— patent US7297700B2, “Bicycloheteroaryl compounds as P2X7 modulators and uses thereof” (Renovis, Inc., priority 2005, dated 2007)
